Source: US20080138461A1, “Lactobacillus buchneri strain LN1297 and its use to improve aerobic stability of silage” (Pioneer Hi-Bred International, Inc., priority 2006, published 2008)

Assay: Aerobic stability of grass silage (method of Honig), PVC silos
Parameters: species or system ryegrass
Protocol: Second cut ryegrass was harvested at PLNC. The grass was determined to have an approximate dry matter of 35%.
Inoculation: Individual strains were supplied as fresh grown overnight culture. Cultures were adjusted to a standard concentration of 5.0×10^7 CFU/mL and applied using a syringe at a rate of 2.2 mL/kg of forage. The application rate for all strains was 1.1×10^5 CFU/g forage. Propionic acid (88%) was applied at a rate of 4.4 mL/kg fresh forage.
PVC Silos: PVC silos were filled at a packing density of 0.288 kg DM/silo (100 kg DM/m^3); approximately 0.82-0.95 kg/silo. Silos were air infused for 24 hours on days 28 and 42, and opened after 50-60 days of ensiling.
Aerobic Stability: The method of Honig (Proc. Of the Eurobac. Conf., P. Lingvall and S. Lindgren (ed.) (12-16 Aug. 1986) Swed. Univ. of Agric. Sci. Grass and Forage Report No. 3-1990. Pp. 76-81. Uppsala, Sweden) was used for measuring aerobic stability (see Table 1). ROT is defined as the time, in hours, for the silage to heat 1.7° C. after exposure to air. Cumm_DD is the integral value of the area between the time ROT is attained and the end of the experiment. Aerobic dry matter loss (% dry matter) was determined relating the increase in temperature and the time to energy losses occurring in the silage.

[1] = average across replicate studies A, B, C

Improvement of aerobic stability over the control (versus control): 96 h
SMILES: CCC(=O)O [Propionic Acid, Propionic acid]
Aerobic deterioration versus control grass silages: significantly less aerobic deterioration
Aerobic Dry Matter Loss, Avg. [1]: 0.43 % dry matter
ROT (time for the silage to heat 1.7° C. after exposure to air), Avg. [1]: 127 h
Aerobic Dry Matter Loss, replicate study A (replicate A): 0.29 % dry matter
ROT (time for the silage to heat 1.7° C. after exposure to air), replicate study A (replicate A): 137 h
Aerobic Dry Matter Loss, replicate study B (replicate B): 0 % dry matter
ROT (time for the silage to heat 1.7° C. after exposure to air), replicate study B (replicate B): 160 h
Aerobic Dry Matter Loss, replicate study C (replicate C): 1.01 % dry matter
ROT (time for the silage to heat 1.7° C. after exposure to air), replicate study C (replicate C): 86 h
